In ChEMBL document CHEMBL4680274, “Modulating microRNA Processing: Enoxacin, the Progenitor of a New Class of Drugs” (J Med Chem, 2020):

Legend:
HCT-116 = test: Anticancer activity against human HCT116 cells incubated for 5 days by MTT assay; format: functional, cell-based; conditions: HCT-116, 120 h
LNCaP = test: Growth inhibition of human LNCaP cells incubated for 72 hrs by MTT assay; format: functional, cell-based
[1] = Cytotoxicity against human neural progenitor cell by CellTiter-Glo Luminescent Cell Viability Assay; format: tissue-based; conditions: neural progenitor cells
Zika virus = test: Antiviral activity against ZIKV infected in human neural progenitor cells incubated with cells for 24 hrs prior to viral infection followed by replacement of fresh medium containing compound and measured at 48 hrs post infection by RT-PCR method; conditions: Neural Progenitor Cell
DU-145 = test: Growth inhibition of human DU145 cells incubated for 72 hrs by MTT assay; format: functional, cell-based; conditions: DU-145, 72 h

CCn1cc(C(=O)O)c(=O)c2cc(F)c(N3CCNCC3)nc21 [ENOXACIN]
EC50 (HCT-116): 124 µM | EC50 (LNCaP): 105 µM | CC50 [1]: 176 µM | IC50 (Zika virus): 52 µM | EC50 (DU-145): 141 µM
